Experimental data published in PubChem BioAssay (NCI).
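Step 1: Grow cells in 96-well plates. Step 2: Expose to compound for 48 hours at 5 concentrations. Step 3: Interpolate endpoints linearly; if unreached, use highest concentration. GI50 = concentration required for 50% inhibition of growth. TGI is the concentration that stops growth completely.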

Experiments:
Assay in all cases: growth of human tumour cells (NCI), 48 h
A498 renal = system: A498 renal
ACHN renal = system: ACHN renal
CAKI-1 renal = system: CAKI-1 renal
HCT-15 colon = system: HCT-15 colon
HT29 colon = system: HT29 colon
MOLT-4 leukemia = system: MOLT-4 leukemia
NCI-H23 lung = system: NCI-H23 lung
UO-31 renal = system: UO-31 renal
EKVX NSCLC = system: EKVX NSCLC
SK-MEL-2 melanoma = system: SK-MEL-2 melanoma

Row | SMILES | GI50 (A498 renal) [µM] | TGI (A498 renal) [µM] | GI50 (ACHN renal) [µM] | TGI (ACHN renal) [µM] | GI50 (CAKI-1 renal) [µM] | TGI (CAKI-1 renal) [µM] | GI50 (HCT-15 colon) [µM] | TGI (HCT-15 colon) [µM] | GI50 (HT29 colon) [µM] | TGI (HT29 colon) [µM] | GI50 (MOLT-4 leukemia) [µM] | TGI (MOLT-4 leukemia) [µM] | GI50 (NCI-H23 lung) [µM] | TGI (NCI-H23 lung) [µM] | GI50 (UO-31 renal) [µM] | TGI (UO-31 renal) [µM] | GI50 (EKVX NSCLC) [µM] | TGI (EKVX NSCLC) [µM] | GI50 (SK-MEL-2 melanoma) [µM] | TGI (SK-MEL-2 melanoma) [µM]
1 | O=C(Nc1nc(-c2ccc(Cl)cc2)cs1)c1ccc(O)c(O)c1 | 3.37 | 15.5 | 3.24 | 12.1 | 3.02 | 10.9 | 3.14 | 18.3 | 11.6 | 24.7 | 2.48 | 12.3 | 4.27 | 20.3 | 2.29 | 10.6 | – | – | – | –
2 | Cc1cccc(Oc2ccc(Nc3ncnc4ccc(NC(=O)CN5CCN(C)CC5)cc34)cc2Cl)c1 | 1.06 | 2.28 | 0.655 | 1.96 | 1.19 | 2.66 | 1.35 | 2.76 | – | – | – | – | 1.74 | 3.49 | 1.1 | 2.35 | 1.12 | 2.64 | 1.87 | 3.64
3 | c1cc2[se][se]c3c4cccc5[se][se]c(c(c1)c23)c54 | – | > 100 | – | > 100 | – | > 100 | – | – | – | > 100 | – | > 100 | – | > 100 | – | > 100 | – | – | – | > 100
4 | O=C(Nc1cccc(-c2nc3ccccc3[nH]2)c1)c1cccc(NC(=O)c2ccco2)c1 | 4.33 | 18.3 | 1.68 | 3.17 | 2.53 | 7.21 | 3.06 | 10.8 | 1.91 | 3.4 | 2.96 | 12 | 2.15 | 4.94 | 3.24 | 11.8 | – | – | 5.33 | 16.9
5 | C/C=C/CP(=O)(c1ccccc1)c1ccccc1 | – | > 100 | – | > 100 | – | – | – | > 100 | – | > 100 | – | > 100 | – | > 100 | – | > 100 | – | > 100 | – | > 100
6 | O=C(/C=C/c1ccc2c(c1)OCO2)c1ccccc1 | 12.4 | 25.4 | 17.5 | 40.9 | 6.9 | 23 | 16.6 | > 100 | – | – | 8.09 | > 100 | 17.4 | 38.6 | 4.19 | 18.9 | 15.1 | 31.1 | – | –
7 | CC(=O)NC(Cc1c[nH]c2ccccc12)C(=O)O (stereo not drawn) | – | > 100 | – | > 100 | – | > 100 | – | > 100 | – | > 100 | – | – | – | > 100 | – | > 100 | – | > 100 | – | > 100
8 | O=C(CSc1nc2sc3c(c2c(=O)n1-c1ccccc1)CCCCC3)N/N=C/c1ccc(F)cc1 | – | – | 4.76 | 34.6 | 3.18 | 13.5 | 3.77 | > 100 | 2.4 | 7.04 | 9.09 | > 100 | 3.29 | 13.9 | 3.77 | > 100 | 11.3 | 41.7 | 14.4 | 28.8
9 | CO/C=C/c1cc2c(cc1C(OC)OC)OCO2 | – | – | – | > 100 | – | > 100 | – | – | – | > 100 | – | > 100 | – | > 100 | – | > 100 | – | > 100 | – | > 100
